According to PMC3793924, “Targeting Androgen Receptor/Src Complex Impairs the Aggressive Phenotype of Human Fibrosarcoma Cells” (PLoS ONE, 2013):

Experiments:
[1] = system: HCT116 cells; assay: Trans-well migration of HCT116 cells; assay type: cell-based, human; conditions: quiescent HCT116 cells, 6 h, EGF 100 ng/ml; for Inhibition of EGF-induced motility (Trans-well): Casodex 10 μM, S1 and Ss peptides 10 nM
[2] = system: NIH3T3 cells; assay: Trans-well migration of NIH3T3 fibroblasts; assay type: cell-based, mouse; conditions: 6 h, EGF 100 ng/ml; for Inhibition of EGF-induced motility (Trans-well): quiescent NIH3T3 fibroblasts, Casodex 10 µM, S1 and Ss peptides 10 nM
Method: NIH3T3 cells were used. In A, cells were transfected with 3416 or 3424 ARE-Luc constructs with or without hAR-expressing plasmid and then made quiescent as reported in Methods. Cells were left unstimulated or stimulated for 18 h with 10 nM R1881. Luciferase activity was assayed, normalized using beta-gal as an internal control, and expressed as fold induction. Three independent experiments were performed in triplicate. Means and SEM are shown; n represents the number of experiments. […] After in vivo labeling with BrdU (100 μM), BrdU incorporation was analyzed by IF and expressed as % of total cells. Several independent experiments were performed in duplicate and data derived from at least 700 scored cells for each coverslip. Mean and SEM are shown. n represents the number of experiments. […] Quiescent NIH3T3 fibroblasts were used. In C, cells on coverslips were left unstimulated or stimulated for 18 h with the indicated compounds. […] After in vivo pulse with BrdU (100 μM), BrdU incorporation was analyzed by IF and expressed as % of total cells. Several independent experiments were performed in duplicate and the results were derived from at least 500 scored cells for each coverslip. Mean and SEM are shown. n represents the number of experiments. […] The Western blot of MCF-7 cell lysate with the anti-tubulin or the anti-EGFR antibody is shown for comparison. In D, cells were left untreated or treated for 6 h with the indicated compounds. […] Cells were allowed to migrate in collagen pre-coated Trans-well filters. Migrated cells were stained and counted as reported in Methods.

[3] = system: LNCaP cells; assay: Trans-well migration of LNCaP cells; assay type: cell-based, human; conditions: quiescent LNCaP cells, 6 h, EGF 100 ng/ml; for Inhibition of EGF-induced motility (transmigration): Casodex 10 μM, S1 and Ss peptides 1 nM
[4] = system: HT1080 cells; assay: BrdU incorporation (DNA synthesis) in quiescent HT1080 cells; assay type: cell-based, human; conditions: EGF 100 ng/ml, 18 h; for Inhibition of EGF-induced BrdU incorporation (DNA synthesis): Casodex 10 μM, S1 and Ss peptides 1 nM, BrdU by IF, % of total nuclei
Method: Human fibrosarcoma HT1080 cells were used. In A, quiescent cells on coverslips were left un-stimulated or stimulated for 18 h with the indicated compounds. […] After in vivo pulse with BrdU (100 μM; Sigma), BrdU incorporation was analyzed by IF and expressed as % of total nuclei. Several independent experiments were performed in duplicate and the results were derived from at least 400 scored cells for each coverslip. Mean and SEM are shown. n represents the number of experiments. […] In B, xenografts were established in nude male mice as described in Methods. On alternate days, animals were intra-peritoneally injected with vehicle alone (vehicle), or the pure androgen antagonist Casodex (Cx: 0.1 μg/mice; 4µg/Kg body weight), or DHT (DHT: 0,1 μg/mice; 3 μg/Kg body weight) alone. Volumes of HT1080 cell xenografts were measured at the indicated times in two dimensions by a caliper and expressed as tumor mass (mm^3). Mean and SEM are shown. n represents the number of experiments.
(§1) Quiescent HT1080 cells were used. […] Casodex (at 10 μM) was used for comparison with the S1 peptide. Upper section in A, Western blot of HT1080 cell lysates with anti-EGFR antibody. […] In B, lysates were immune-precipitated with the anti-Src MAb and Src activity in immune complexes was assayed using acidified enolase, as a substrate. In C, cells on coverslips were left untreated or treated for 18 h with the indicated compounds. After in vivo pulse with BrdU (100 μM), BrdU incorporation was analyzed by IF and expressed as % of total nuclei. Several independent experiments were performed in duplicate and the results were obtained from at least 500 scored cells for each coverslip. Mean and SEM are shown. n represents the number of experiments.

[5] = system: MMP-9; assay: Protease activity of MMP-9 released from HT1080 cells; assay type: cell-based, human; conditions: quiescent HT1080 cells; for Inhibition of EGF-stimulated MMP-9 secretion (protease activity): EGF 100 ng/ml 5 min, Casodex 10 μM, S1 and Ss peptides 10 nM added 30 min before EGF
[6] = target: T1, Src tyrosine kinase (Homo sapiens, UniProt P12931); assay: Src kinase activity in immune complexes from HT1080 cells (enolase substrate); assay type: cell-based; conditions: quiescent HT1080 cells, EGF 100 ng/ml 10 min; S1 and Ss peptides 1 nM; Casodex 10 μM
T1 construct: lysates were immune-precipitated with the anti-Src MAb and Src activity in immune complexes was assayed using acidified enolase; endogenous in cells; host or cells: HT1080 human fibrosarcoma cells
Method: as §1
(§2) Lysates (at 2 mg/ml protein concentration) were prepared as described. […] The Src tyrosine kinase activity in immunocomplexes was assayed using enolase (Sigma) as a substrate.

[7] = system: KP-2 cells; assay: Trans-well migration of KP-2 cells; assay type: cell-based, human; conditions: quiescent KP-2 cells, 6 h, EGF 100 ng/ml; for Inhibition of EGF-induced motility (transmigration): Casodex 10 μM, S1 and Ss peptides 10 nM
[8] = system: NIH3T3 cells; assay: BrdU incorporation in NIH3T3 fibroblasts; assay type: cell-based, mouse; conditions: EGF 100 ng/ml, 18 h; for Inhibition of EGF-induced BrdU incorporation: quiescent NIH3T3 fibroblasts, Casodex 10 μM, S1 and Ss peptides 1 nM
Method: NIH3T3 cells were used. In A, cells were transfected with 3416 or 3424 ARE-Luc constructs with or without hAR-expressing plasmid and then made quiescent as reported in Methods. Cells were left unstimulated or stimulated for 18 h with 10 nM R1881. Luciferase activity was assayed, normalized using beta-gal as an internal control, and expressed as fold induction. Three independent experiments were performed in triplicate. Means and SEM are shown; n represents the number of experiments. […] After in vivo labeling with BrdU (100 μM), BrdU incorporation was analyzed by IF and expressed as % of total cells. Several independent experiments were performed in duplicate and data derived from at least 700 scored cells for each coverslip. Mean and SEM are shown. n represents the number of experiments. […] Quiescent NIH3T3 fibroblasts were used. In C, cells on coverslips were left unstimulated or stimulated for 18 h with the indicated compounds. […] After in vivo pulse with BrdU (100 μM), BrdU incorporation was analyzed by IF and expressed as % of total cells. Several independent experiments were performed in duplicate and the results were derived from at least 500 scored cells for each coverslip. Mean and SEM are shown. n represents the number of experiments. […] The Western blot of MCF-7 cell lysate with the anti-tubulin or the anti-EGFR antibody is shown for comparison. In D, cells were left untreated or treated for 6 h with the indicated compounds. […] Cells were allowed to migrate in collagen pre-coated Trans-well filters. Migrated cells were stained and counted as reported in Methods. Results were derived from several independent experiments, each performed in duplicate. Data are expressed as relative increase. Mean and SEM are shown. n represents the number of experiments. […] (PPTX) Click here for additional data file.

[9] = target: T2, EGFR/AR/Src complex (Homo sapiens, UniProt P12931); assay: Co-immunoprecipitation of EGFR/AR/Src complex in HT1080 cells; assay type: cell-based; conditions: quiescent HT1080 cells; for Effect on EGF-induced EGFR/AR/Src complex assembly: EGF 100 ng/ml 10 min, S1 and Ss peptides 1 nM, anti-EGFR immunoprecipitation
T2 construct: endogenous in cells; host or cells: HT1080 human fibrosarcoma cells
Method: as §1, §2

Compound | Inhibition of EGF-induced motility (Trans-well) [1] | Inhibition of EGF-induced motility (Trans-well) [2] | Inhibition of EGF-induced motility (transmigration) [3] | Inhibition of EGF-induced BrdU incorporation (DNA synthesis) [4] | Inhibition of EGF-stimulated MMP-9 secretion (protease activity) [5] | Inhibition of EGF-triggered Src activity stimulation [6] | Inhibition of EGF-induced motility (transmigration) [7] | Inhibition of EGF-induced BrdU incorporation [8] | Motility upon stimulation [1] | Motility upon stimulation ([2]; quiescent NIH3T3 cells) | Motility in transmigration assay upon stimulation [3] | Association of EGF-R with AR and Src upon stimulation ([9]; EGF 100 ng/ml, 10 min) | BrdU incorporation (DNA synthesis) upon stimulation with the compound alone ([4]; R1881 and DHT 10 nM) | Increase of protease activity of MMP-9 released ([5]; EGF 100 ng/ml, 5 min) | Motility upon stimulation [7] | BrdU incorporation (DNA synthesis) upon stimulation with the compound alone ([8]; quiescent NIH3T3 cells, R1881 10 nM) | Effect on EGF-induced EGFR/AR/Src complex assembly [9]
CC(O)(CS(=O)(=O)c1ccc(F)cc1)C(=O)Nc1ccc(C#N)c(C(F)(F)F)c1 (stereo not drawn) [Casodex] | similarly inhibit these EGF-elicited responses | significantly inhibit both the responses | inhibited to a similar extent | inhibits the EGF-induced BrdU incorporation | inhibits this response | This inhibition is comparable to that observed by treatment of cells with 10 μM Casodex | inhibit both DNA synthesis and motility | significantly inhibit both the responses |  |  |  |  |  |  |  |  | 
EGF: epidermal growth factor (Roche), used as stimulus at 100 ng/ml |  |  |  |  |  |  |  |  | robustly increases | significantly increases | significantly increases the motility | induces association of EGF-R with AR and Src | significantly incorporate BrdU | about 2 fold | significantly increases | significantly increases BrdU incorporation | 
Ac-PPPHPHARIK-NH2 [S1 peptide] | similarly inhibit these EGF-elicited responses | significantly inhibit both the responses | inhibited to a similar extent | abolishes the mitogenic response elicited by EGF | inhibits the EGF effect on MMP-9 secretion | completely abolishes | inhibit both DNA synthesis and motility | significantly inhibit both the responses |  |  |  |  |  |  |  |  | abolishes AR/Src association with EGF-R
Ac-HPKPARIPHP-NH2 [Ss peptide] | does not interfere with the EGF-elicited responses | slightly modifies |  | only slightly affects | negligible inhibitory effect | only slightly affects | does not interfere with the EGF-elicited responses | slightly modifies DNA synthesis |  |  |  |  |  |  |  |  | only slightly affects
